From patent US20150238487A1, “NOVEL ERGOLINE DERIVATIVES AND USES THEREOF” (MAP Pharmaceuticals, Inc., priority 2012, published 2015)

Tests used:
Opioid (OP1/OP2/OP3) = experiment: GTPγ[35S] assay, Opioid receptors; type: biochemical, human; details: CHO-K1 membranes
Description: (§1) Receptor […] activity assays were performed using 8′OH-2-CF3-dihydroergotamine (8′OH-2-CF3-DHE). Table 1 summarizes the cell lines (CHO-K1/HEK293 transfected with relevant human receptor) and the assays performed to detect any agonist or antagonist activity.
(§2) GTPγS studies were conducted to monitor agonist activity for 8′OH-2CF3-dihydroergotamine (8′OH-2CF3-DHE) against the receptors indicated in Table 1 above. Reagents used were the following: Assay buffer (20 mM HEPES, pH 7.4; 100 mM NaCl; 10 μg/mL saponin; 30 mM MgCl2); Membranes (recombinant human receptor membrane extracts were thawed on ice and diluted in assay buffer to give 1000 μg/mL ([…]) and kept on ice); GDP (diluted in assay buffer to give 30 μM solution (3 μM final concentration); beads (PVT-WGA (Amersham, RPNQ001), diluted in assay buffer at 25 mg/mL (0.25 mg/10 μL)); GTPγ^35S (Perkin Elmer, NEG030X), diluted in assay buffer to give 0.1 nM (final concentration); and ligand (agonist/antagonist diluted in assay buffer).
(§3) Membranes were mixed with GDP (1:1) and incubated for at least 15 minutes on ice. In parallel GTPγ^35S was mixed with the beads (1:1) just before starting the reaction. […] The plates were then centrifuged for 10 minutes at 2000 rpm and incubated at room temperature for 1 hour and counted for 1 min/well with a Perkin Elmer TopCount reader.

[1] = tested on: VIP/PACAP (PAC1/VPAC1/VPAC2); experiment: Aequorin assay, VIP/PACAP receptors; type: cell-based, human; details: CHO-AEQ
Description: as §1
(§4) Aequorin assays were conducted to monitor activity for 8′OH-2CF3-dihydroergotamine (8′OH-2CF3-DHE) against the receptors indicated in Table 1 above (except for mGlu3 and mGlu5). CHO-K1 cells coexpressing mitochondrial apoaequorin and the recombinant human receptor of interest were grown to mid-log phase in culture media without antibiotics and then detached with PBS-EDTA, centrifuged and resuspended in assay buffer (DMEM/HAM's F12 with HEPES, without phenol red+0.1% BSA, protease free) at a concentration of 1×10^6 cell/mL. […]
(§5) 50 μL of the cell suspension was mixed with 50 μL of test or reference agonist in a 96-well plate. The resulting emission of light was recorded using Hamamatsu Functional Drug Screening System 6000 (FDSS 6000) luminometer. […]
(§6) To standardize the emission of recorded light (and determine of the “100% signal”) across plates and across different experiments, some wells contained 100 μM digitonin or a saturating concentration of ATP (20 μM).

[2] = tested on: Glutamate (mG1u3/mG1u5/mG1u7); experiment: Glutamate receptor assays (Aequorin mGlu3/mGlu5, cAMP mGluR7); type: cell-based, human; details: Aequorin (mGluR3, mGluR5)
Description: Receptor […] activity assays were performed using 8′OH-2-CF3-dihydroergotamine (8′OH-2-CF3-DHE). Table 1 summarizes the cell lines (CHO-K1/HEK293 transfected with relevant human receptor) and the assays performed to detect any agonist or antagonist activity. […]
For agonist testing, 30 μL of cell suspension was mixed with 30 μL of test or reference agonist in a 384-well plate. The resulting emission of light was recorded using Hamamatsu Functional Drug Screening System 6000 (FDSS 6000) luminometer. […] The resulting emission of light was recorded using Hamamatsu Functional Drug Screening System 6000 (FDSS 6000) luminometer.
cAMP HTRF (Gi) studies were conducted to monitor activity for 8′OH-2CF3-dihydroergotamine (8′OH-2CF3-DHE) against the receptors indicated in Table 1 above. […] Lysis buffer was added and after a 1 hour incubation, cAMP concentrations was determined according to the manufacturer specification with the HTRF kit. […] Lysis buffer was added and after a 1 hour incubation, cAMP concentrations were determined according to the manufacturer specification, with the HTRF kit.

CCK2 = molecular target: T1, CCK2 (Homo sapiens, UniProt P32239); experiment: Aequorin assay, Cholecystokinin CCK2; type: cell-based; details: antagonism, CHO-AEQ
T1 construct: expressed in transfected cells; host or cells: CHO-AEQ
Description: as §1, §4, §5, §6

Adrenergic α2A = molecular target: T2, Adrenergic α2A (Homo sapiens, UniProt P08913); experiment: GTPγ[35S] assay, Adrenergic α2A; type: biochemical; details: antagonism, CHO-K1 membranes, read-out: Activity (Antagonism: IC50), Adrenergic a2A
T2 construct: expressed in transfected cells; host or cells: CHO-K1 (membrane extracts)
Description: as §1, §2, §3

Serotonin 5-HT1F = molecular target: T3, Serotonin 5-HT1F (Homo sapiens, UniProt P30939); experiment: cAMP HTRF assay, Serotonin 5-HT1F; type: cell-based; details: CHO-K1, cAMP
T3 construct: expressed in transfected cells; host or cells: CHO-K1
Description: as §1
cAMP HTRF (Gi) studies were conducted to monitor activity for 8′OH-2CF3-dihydroergotamine (8′OH-2CF3-DHE) against the receptors indicated in Table 1 above. Cells expressing the human recombinant receptor of interest were grown in media without antibiotic and detached by gentle flushing with PBS-EDTA (5 mM EDTA), recovered by centrifugation and resuspended in assay buffer (KRH: 5 mM KCl, 1.25 mM MgSO4, 124 mM NaCl, 25 mM HEPES, 13.3 mM glucose, 1.25 mM KH2PO4, 1.45 mM CaCl2, 0.5 g/L BSA). Dose response curves were performed in parallel with the reference compounds. For agonist tests (96-well plates), 12 μL of cells was mixed with 6 μL of the test compound at increasing concentrations and 6 μL of forskolin and then incubated for 30 minutes at room temperature. Lysis buffer was added and after a 1 hour incubation, cAMP concentrations was determined according to the manufacturer specification with the HTRF kit. […] Lysis buffer was added and after a 1 hour incubation, cAMP concentrations were determined according to the manufacturer specification, with the HTRF kit.

T3 sequence (P30939 whole entry): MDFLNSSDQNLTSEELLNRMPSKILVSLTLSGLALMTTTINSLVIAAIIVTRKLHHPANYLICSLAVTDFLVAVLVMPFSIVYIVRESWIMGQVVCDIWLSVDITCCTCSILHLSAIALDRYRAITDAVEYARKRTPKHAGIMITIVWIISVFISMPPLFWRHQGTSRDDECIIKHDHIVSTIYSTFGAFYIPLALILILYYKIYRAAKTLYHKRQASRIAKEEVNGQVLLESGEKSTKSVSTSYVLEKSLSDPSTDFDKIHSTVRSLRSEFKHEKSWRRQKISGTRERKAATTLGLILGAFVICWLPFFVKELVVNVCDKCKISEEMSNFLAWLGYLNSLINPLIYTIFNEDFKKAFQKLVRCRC
T2 sequence (P08913 whole entry): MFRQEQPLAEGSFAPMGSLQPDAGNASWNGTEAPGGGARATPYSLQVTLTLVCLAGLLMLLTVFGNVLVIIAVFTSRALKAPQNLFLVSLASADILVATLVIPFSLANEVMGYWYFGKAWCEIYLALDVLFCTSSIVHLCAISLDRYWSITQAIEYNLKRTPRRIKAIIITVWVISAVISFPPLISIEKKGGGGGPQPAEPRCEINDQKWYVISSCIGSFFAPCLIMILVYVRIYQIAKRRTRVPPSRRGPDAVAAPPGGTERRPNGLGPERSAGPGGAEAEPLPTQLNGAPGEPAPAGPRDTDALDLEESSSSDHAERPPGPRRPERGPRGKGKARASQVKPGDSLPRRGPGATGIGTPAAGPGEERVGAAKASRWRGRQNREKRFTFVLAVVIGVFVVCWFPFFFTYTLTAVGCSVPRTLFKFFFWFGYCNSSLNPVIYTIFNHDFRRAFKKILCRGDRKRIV
T1 sequence (P32239 whole entry): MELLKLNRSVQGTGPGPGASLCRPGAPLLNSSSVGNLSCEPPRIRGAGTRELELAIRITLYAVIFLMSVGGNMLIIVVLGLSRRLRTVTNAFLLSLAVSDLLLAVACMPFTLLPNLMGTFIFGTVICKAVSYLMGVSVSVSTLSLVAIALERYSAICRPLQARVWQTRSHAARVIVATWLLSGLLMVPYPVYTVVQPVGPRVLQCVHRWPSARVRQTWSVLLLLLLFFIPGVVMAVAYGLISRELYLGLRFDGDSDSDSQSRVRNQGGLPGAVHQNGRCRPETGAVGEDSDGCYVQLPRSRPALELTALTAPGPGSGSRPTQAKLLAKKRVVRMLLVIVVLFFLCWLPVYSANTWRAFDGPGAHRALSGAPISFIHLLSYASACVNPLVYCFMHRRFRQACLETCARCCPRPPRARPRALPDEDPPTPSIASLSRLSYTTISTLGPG

`CN1C[C@H](C(=O)N[C@]2(C)O[C@@]3(O)[C@@H]4CC[C@@H](O)N4C(=O)[C@H](Cc4ccccc4)N3C2=O)C[C@@H]2c3cccc4[nH]c(C(F)(F)F)c(c34)C[C@H]21` [8′OH-2-CF3-DHE, 8′-Hydroxy-2-CF3-dihydroergotamine] was tested, and the “Activity (Agonism: EC50; Antagonism: IC50), Opioid (OP1/OP2/OP3)” value (Opioid (OP1/OP2/OP3)) was “Inactive”, the “Activity (Agonism: EC50; Antagonism: IC50), VIP/PACAP (PAC1/VPAC1/VPAC2)” value [1] was “Inactive” and the “Activity (Agonism: EC50; Antagonism: IC50), Glutamate (mG1u3/mG1u5/mG1u7)” value [2] was “Inactive”. For the same compound, the IC50 (CCK2) was greater than 10 µM, the IC50 (Adrenergic α2A) was 0.149 µM and the “Activity (Agonism: EC50; Antagonism: IC50), 5-HT1F” value (Serotonin 5-HT1F) was “Inactive”.
